# Reference: PubChem BioAssay AID192 (DTP/NCI, 2004)
# Several values for one entry are separate records, joined by “and”; a condition that tells them apart may be missing. Identical values can stand only once. Toxic doses and inconclusive results are not listed.
# Test system: BDF1 mice, B16 melanoma ip, median survival T/C
# Experiment: NCI In Vivo Anticancer Drug Screen. Data for tumor model B16 Melanoma (intraperitoneal) in B6D2F1 (BDF1) mice
# Settings: endpoint: median survival time, higher = longer survival
# Protocol: The antitumor activity of compounds was measured in mice bearing transplantable tumors. Survival or tumor size were measured and the results are expressed as the measurement made in the treated group (T) divided by the measurement made in the vehicle treated control group (C). The tumor model used in this assay is B16 Melanoma (intraperitoneal) in B6D2F1 (BDF1) mice
# [1] = dose: 6.25 mg/kg/injection, schedule: Q01DX009 (ip), vehicle: Klucel (hydroxypropylcellulose) (HPC)
# [2] = dose: 12.5 mg/kg/injection, schedule: Q01DX009 (ip), vehicle: Klucel (hydroxypropylcellulose) (HPC)
# [3] = dose: 25.0 mg/kg/injection, schedule: Q01DX009 (ip), vehicle: Klucel (hydroxypropylcellulose) (HPC)
# [4] = dose: 400.0 mg/kg/injection, schedule: Q01DX009 (ip), vehicle: Klucel (hydroxypropylcellulose) (HPC)
smiles,measurement,setting,value
COC1(OC)C2(Cl)C(Cl)=C(Cl)C1(Cl)C1C(=O)C=CC(=O)C12 (stereo not given),T/C,"dose: 1.56 mg/kg/injection, schedule: Q01DX009 (ip), vehicle: Klucel (hydroxypropylcellulose) (HPC)",91 % of control
same,T/C,"dose: 3.12 mg/kg/injection, schedule: Q01DX009 (ip), vehicle: Klucel (hydroxypropylcellulose) (HPC)",90 % of control
same,T/C,[1],90 % of control
same,T/C,[2],90 % of control
same,T/C,[3],91 % of control
same,T/C,[4],88 % of control
O=C1C(=O)C(Cl)=C(Cl)C(Cl)=C1Cl,T/C,"dose: 0.75 mg/kg/injection, schedule: Q01DX009 (ip), vehicle: saline",106 % of control
same,T/C,"dose: 1.5 mg/kg/injection, schedule: Q01DX009 (ip), vehicle: saline",93 % of control
same,T/C,"dose: 3.0 mg/kg/injection, schedule: Q01DX009 (ip), vehicle: saline",93 % of control
O=C(Nc1ccc(Cl)cc1)Nc1ccccc1Cl,T/C,"dose: 4.5 mg/kg/injection, schedule: Q01DX009 (ip), vehicle: gum acacia",102 % of control
same,T/C,"dose: 9.0 mg/kg/injection, schedule: Q01DX009 (ip), vehicle: gum acacia",97 % of control
same,T/C,"dose: 18.0 mg/kg/injection, schedule: Q01DX009 (ip), vehicle: gum acacia",90 % of control
same,T/C,"dose: 100.0 mg/kg/injection, schedule: Q01DX009 (ip), vehicle: gum acacia",89 % of control
Brc1cnc(OCc2ccccc2)nc1OCc1ccccc1,T/C,"dose: 100.0 mg/kg/injection, schedule: Q01DX009 (ip), vehicle: Klucel (hydroxypropylcellulose) (HPC)",118 % of control
same,T/C,"dose: 200.0 mg/kg/injection, schedule: Q01DX009 (ip), vehicle: Klucel (hydroxypropylcellulose) (HPC)",110 % of control
same,T/C,[4],107 % of control
CNC(Cc1ccccc1)C1CCCCC1 (stereo not given),T/C,"dose: 6.25 mg/kg/injection, schedule: Q04DX003 (ip), vehicle: Klucel (hydroxypropylcellulose) (HPC)",102 % of control
same,T/C,"dose: 12.5 mg/kg/injection, schedule: Q04DX003 (ip), vehicle: Klucel (hydroxypropylcellulose) (HPC)",100 % of control
same,T/C,"dose: 25.0 mg/kg/injection, schedule: Q04DX003 (ip), vehicle: Klucel (hydroxypropylcellulose) (HPC)",96 % of control
CC(=O)OCc1cc(=O)n(C)c2c3c4c(cc12)c(C)cc(=O)n4CO3,T/C,[1],122 % of control
same,T/C,[2],120 % of control
same,T/C,[3],121 % of control
CCCCc1c(C)[nH]c(=S)[nH]c1=O,T/C,"dose: 25.0 mg/kg/injection, schedule: Q01DX009 (ip), vehicle: saline with Tween-80",110 % of control
same,T/C,"dose: 50.0 mg/kg/injection, schedule: Q01DX009 (ip), vehicle: saline with Tween-80",104 % of control
same,T/C,"dose: 100.0 mg/kg/injection, schedule: Q01DX009 (ip), vehicle: saline with Tween-80",97 % of control
Cc1cccnc1C,T/C,"dose: 25.0 mg/kg/injection, schedule: Q04DX003 (ip), vehicle: saline",103 % of control
same,T/C,"dose: 50.0 mg/kg/injection, schedule: Q04DX003 (ip), vehicle: saline",104 % of control
same,T/C,"dose: 100.0 mg/kg/injection, schedule: Q04DX003 (ip), vehicle: saline",112 % of control
C#CC(O)(/C=C\Cl)CC (stereo not given),T/C,"dose: 6.25 mg/kg/injection, schedule: Q01DX009 (ip), vehicle: saline",110 % of control
same,T/C,"dose: 12.5 mg/kg/injection, schedule: Q01DX009 (ip), vehicle: saline",102 % of control
same,T/C,"dose: 25.0 mg/kg/injection, schedule: Q01DX009 (ip), vehicle: saline",100 % of control
same,T/C,"dose: 50.0 mg/kg/injection, schedule: Q01DX009 (ip), vehicle: saline",110 % of control
same,T/C,"dose: 100.0 mg/kg/injection, schedule: Q01DX009 (ip), vehicle: saline",115 % of control
COc1cc([C@@H]2c3cc4c(cc3[C@@H](OC3OC5CO[C@@H](c6cccs6)OC5C(O)C3O)[C@H]3COC(=O)[C@H]23)OCO4)cc(OC)c1O (stereo not given in full),T/C,"dose: 0.25 mg/kg/injection, schedule: Q01DX009 (ip), vehicle: clinical formulation",183 % of control
same,T/C,"dose: 0.25 mg/kg/injection, schedule: Q01DX009 (ip), vehicle: saline",171 % of control
same,T/C,"dose: 0.5 mg/kg/injection, schedule: Q01DX009 (ip), vehicle: clinical formulation",223 % of control
same,T/C,"dose: 0.5 mg/kg/injection, schedule: Q01DX009 (ip), vehicle: saline",166 % of control and 214 % of control
same,T/C,"dose: 0.5 mg/kg/injection, schedule: Q01DX009 (ip), vehicle: water",173 % of control
same,T/C,"dose: 1.0 mg/kg/injection, schedule: Q01DX009 (ip), vehicle: clinical formulation",269 % of control
same,T/C,"dose: 1.0 mg/kg/injection, schedule: Q01DX009 (ip), vehicle: saline",185 % of control and 254 % of control
same,T/C,"dose: 1.0 mg/kg/injection, schedule: Q01DX009 (ip), vehicle: water",178 % of control
same,T/C,"dose: 2.0 mg/kg/injection, schedule: Q01DX009 (ip), vehicle: clinical formulation",285 % of control
same,T/C,"dose: 2.0 mg/kg/injection, schedule: Q01DX009 (ip), vehicle: saline",204 % of control and 285 % of control
same,T/C,"dose: 2.0 mg/kg/injection, schedule: Q01DX009 (ip), vehicle: water",204 % of control
same,T/C,"dose: 4.0 mg/kg/injection, schedule: Q01DX009 (ip), vehicle: saline",257 % of control
